Test results published in patent US20220289753A1, “SHP2 INHIBITORS” (IRBM S.P.A., priority 2019, published 2022).
Read-outs that look alike come from different tables or passages of the source.

Legend:
[1] = target: T1, SHP-2 enzyme (Met1-Leu525) (Homo sapiens, UniProt Q06124); experiment: SHP2 inhibition enzymatic assay (DiFMUP substrate, IRS1 peptide activation); assay type: biochemical; conditions: SHP2 wt; activated by 500 nM IRS1 peptide; 75 μM DiFMUP substrate
T1 construct: synthetized by Origene, Met1-Leu525, cat #TP750155; purchased Origene TP750155
T1 sequence (Q06124 1-525): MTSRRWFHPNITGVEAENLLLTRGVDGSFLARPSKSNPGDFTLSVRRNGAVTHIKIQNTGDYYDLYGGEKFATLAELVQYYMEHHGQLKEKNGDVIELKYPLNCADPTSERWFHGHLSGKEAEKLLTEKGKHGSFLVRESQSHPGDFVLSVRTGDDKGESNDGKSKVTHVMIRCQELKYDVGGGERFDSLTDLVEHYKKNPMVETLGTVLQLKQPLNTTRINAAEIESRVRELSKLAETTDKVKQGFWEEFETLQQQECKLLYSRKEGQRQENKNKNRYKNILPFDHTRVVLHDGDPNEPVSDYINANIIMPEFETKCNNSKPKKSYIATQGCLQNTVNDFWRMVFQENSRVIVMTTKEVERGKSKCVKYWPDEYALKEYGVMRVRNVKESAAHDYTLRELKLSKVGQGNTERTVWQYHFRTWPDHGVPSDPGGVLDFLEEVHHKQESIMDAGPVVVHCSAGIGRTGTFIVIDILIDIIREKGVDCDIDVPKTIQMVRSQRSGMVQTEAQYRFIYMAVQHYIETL
Summary of the method: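 SHP-2 (Met1-Leu525, 0.5 nM final) preincubated 30 min with compounds and IRS1 activating peptide in HEPES pH 7.2 buffer with NaCl, KCl, EDTA, tween-20, 5 mM DTT. DiFMUP then added for 30 min at room temperature and fluorescence read. IC50 from four-parameter logistic fit of % inhibition.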

[2] = system: ERK phosphorylation in KYSE-520 cells; experiment: Phospho-ERK cellular assay (Advanced phospho-ERK1/2 (Thr202/Tyr204) TR-FRET kit); assay type: cell-based; conditions: Homo sapiens, KYSE-520, 2 h, read-out: pERK IC50
Summary of the method: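 IC50 values are inflection points of four-parameter logistic fits of percent activity against compound dilution. Compound exposure lasted 2 h at 37° C in KYSE-520 cells. Lysates were probed overnight with Eu-cryptate/d2 antibodies to ERK1/2 phosphorylated at Thr202/Tyr204, so reduced TR-FRET indicates SHP2 inhibition.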

[3] = KYSE-520 cells, 2 h at 37° C., TR-FRET

## N[C@@H]1c2ccccc2CC12CCN(c1nc3ncc(Sc4ccnc5ccccc45)nc3[nH]1)CC2 [Example 176, (S)-1′-(6-(quinolin-4-ylthio)-1H-imidazo[4,5-b]pyrazin-2-yl)-1,3-dihydrospiro[indene-2,4′-piperidin]-1-amine]
[1]
  IC50: < 500 nM
[2]; [3]
  IC50: < 1000 nM

## Cc1ccnc2c(Sc3cnc4[nH]c(N5CCC6(CC5)Cc5ccccc5[C@H]6N)nc4n3)ccnc12 [Example 254, (S)-1′-(5-((8-methyl-1,5-naphthyridin-4-yl)thio)-1H-imidazo[4,5-b]pyrazin-2-yl)-1,3-dihydrospiro[indene-2,4′-piperidin]-1-amine]
[1]
  IC50: < 500 nM
[2]; [3]
  IC50: < 1000 nM

## Nc1nccc(Sc2cnc3[nH]c(N4CCC5(CC4)Cc4ncc(F)cc4[C@H]5N)nc3n2)c1Cl [Example 230, (S)-1′-(5-((2-amino-3-chloropyridin-4-yl)thio)-1H-imidazo[4,5-b]pyrazin-2-yl)-3-fluoro-5,7-dihydrospiro[cyclopenta[b]pyridine-6,4′-piperidin]-5-amine]
[1]
  IC50: < 500 nM
[2]; [3]
  IC50: 1000 to 5000 nM

## N[C@@H]1c2ccccc2CC12CCN(c1nc3nc(Sc4ccc[n+]([O-])c4C(F)(F)F)cnc3[nH]1)CC2 [Example 141, (S)-3-((2-(1-amino-1,3-dihydrospiro[indene-2,4′-piperidin]-1′-yl)-1H-imidazo[4,5-b]pyrazin-5-yl)thio)-2-(trifluoromethyl)pyridine 1-oxide]
[1]
  IC50: < 500 nM
[2]; [3]
  IC50: < 1000 nM

## CN1C(=O)COc2c(Sc3cnc4nc(N5CCC6(CC5)Cc5ccccc5[C@H]6N)[nH]c4n3)cccc21 [Example 173, (S)-8-((2-(1-amino-1,3-dihydrospiro[indene-2,4′-piperidin]-1′-yl)-1H-imidazo[4,5-b]pyrazin-6-yl)thio)-4-methyl-2H-benzo[b][1,4]oxazin-3(4H)-one]
[1]
  IC50: < 500 nM
[2]; [3]
  IC50: 1000 to 5000 nM

## N[C@@H]1c2ccccc2CC12CCN(c1nc3nc(Sc4cccc5[nH]c(=O)cnc45)cnc3[nH]1)CC2 [Example 216, (S)-5-((2-(1-amino-1,3-dihydrospiro[indene-2,4′-piperidin]-1′-yl)-1H-imidazo[4,5-b]pyrazin-5-yl)thio)quinoxalin-2(1H)-one]
[1]
  IC50: < 500 nM
[2]; [3]
  IC50: < 1000 nM

## Nc1nccc(Sc2cnc3nc(N4CCC5(CC4)Cc4cccc(F)c4[C@H]5N)[nH]c3n2)c1Cl [Example 203, (S)-1′-(6-((2-amino-3-chloropyridin-4-yl)thio)-1H-imidazo[4,5-b]pyrazin-2-yl)-7-fluoro-1,3-dihydrospiro[indene-2,4′-piperidin]-1-amine]
[1]
  IC50: < 500 nM
[2]; [3]
  IC50: < 1000 nM

## Cc1nccc(Sc2cnc3nc(N4CCC5(CC4)Cc4ccccc4[C@H]5N)[nH]c3n2)c1Cl [Example 195, (S)-1′-(6-((3-chloro-2-methylpyridin-4-yl)thio)-1H-imidazo[4,5-b]pyrazin-2-yl)-1,3-dihydrospiro[indene-2,4′-piperidin]-1-amine]
[1]
  IC50: < 500 nM
[2]; [3]
  IC50: < 1000 nM

## N[C@@H]1c2ccccc2CC12CCN(c1nc3nc(Sc4ccnc(N5CC(O)C5)c4Cl)cnc3[nH]1)CC2 [Example 165, (S)-1-(4-((2-(1-amino-1,3-dihydrospiro[indene-2,4′-piperidin]-1′-yl)-1H-imidazo[4,5-b]pyrazin-5-yl)thio)-3-chloropyridin-2-yl)azetidin-3-ol]
[1]
  IC50: < 500 nM
[2]; [3]
  IC50: < 1000 nM

## N[C@@H]1c2ccccc2CC12CCN(c1nc3nc(Sc4cc(O)ncc4Cl)cnc3[nH]1)CC2 [Example 241, (S)-4-((2-(1-amino-1,3-dihydrospiro[indene-2,4′-piperidin]-1′-yl)-1H-imidazo[4,5-b]pyrazin-5-yl)thio)-5-chloropyridin-2-ol]
[1]
  IC50: 500 to 3000 nM
[2]; [3]
  IC50: 1000 to 5000 nM

## N[C@@H]1c2ccccc2CC12CCN(c1cc3nc(Sc4cccc(Cl)c4Cl)cnc3[nH]1)CC2 [Example 243, (S)-1′-(2-((2,3-dichlorophenyl)thio)-5H-pyrrolo[2,3-b]pyrazin-6-yl)-1,3-dihydrospiro[indene-2,4′-piperidin]-1-amine]
[1]
  IC50: < 500 nM
[2]; [3]
  IC50: < 1000 nM

## CNC(=O)c1ncccc1Sc1cnc2[nH]c(N3CCC4(CC3)Cc3ccccc3[C@H]4N)nc2n1 [Example 224, (S)-3-((2-(1-amino-1,3-dihydrospiro[indene-2,4′-piperidin]-1′-yl)-1H-imidazo[4,5-b]pyrazin-5-yl)thio)-N-methylpicolinamide]
[1]
  IC50: < 500 nM
[2]; [3]
  IC50: > 5000 nM

## N[C@@H]1c2ccccc2CC12CCN(c1nc3nc(Sc4cccc5c4OCC(=O)N5)cnc3[nH]1)CC2 [Example 157]
[1]
  IC50: < 500 nM
[2]; [3]
  IC50: > 5000 nM

## N[C@H]1c2ccccc2CC12CCN(c1nc3nc(Sc4cccnc4C(F)(F)F)cnc3[nH]1)CC2 [Example 149, (R)-1′-(5-((2-(trifluoromethyl)pyridin-3-yl)thio)-1H-imidazo[4,5-b]pyrazin-2-yl)-1,3-dihydrospiro[indene-2,4′-piperidin]-1-amine]
[1]
  IC50: < 500 nM
[2]
  IC50: 1000 to 5000 nM

## N[C@@H]1c2ccccc2CC12CCN(c1nc3nc(Sc4cncnc4C(F)(F)F)cnc3[nH]1)CC2 [Example 156, (S)-1′-(5-((4-(trifluoromethyl)pyrimidin-5-yl)thio)-1H-imidazo[4,5-b]pyrazin-2-yl)-1,3-dihydrospiro[indene-2,4′-piperidin]-1-amine]
[1]
  IC50: < 500 nM
[2]; [3]
  IC50: > 5000 nM

## Nc1nccc(Sc2cnc3[nH]c(N4CCC5(CC4)Cc4ccccc4[C@H]5N)nc3n2)c1Cl [Example 132, (S)-1′-(5-((2-amino-3-chloropyridin-4-yl)thio)-1H-imidazo[4,5-b]pyrazin-2-yl)-1,3-dihydrospiro[indene-2,4′-piperidin]-1-amine]
[1]
  IC50: < 500 nM
[2]; [3]
  IC50: < 1000 nM

## Nc1nccc(Sc2cnc3[nH]c(N4CCC5(CC4)Cc4cc(F)c(F)cc4[C@H]5N)nc3n2)c1Cl [Example 188, (S)-1′-(5-((2-amino-3-chloropyridin-4-yl)thio)-1H-imidazo[4,5-b]pyrazin-2-yl)-5,6-difluoro-1,3-dihydrospiro[indene-2,4′-piperidin]-1-amine]
[1]
  IC50: < 500 nM
[2]; [3]
  IC50: < 1000 nM

## Cc1nc(COc2cnccc2Sc2cnc3[nH]c(N4CCC5(CC4)Cc4ccccc4[C@H]5N)nc3n2)co1 [Example 227, (S)-1′-(5-((3-((2-methyloxazol-4-yl)methoxy)pyridin-4-yl)thio)-1H-imidazo[4,5-b]pyrazin-2-yl)-1,3-dihydrospiro[indene-2,4′-piperidin]-1-amine]
[1]
  IC50: < 500 nM
[2]; [3]
  IC50: > 5000 nM

## CC(=O)N1CC(F)(F)c2c(Sc3cnc4[nH]c(N5CCC6(CC5)Cc5ccccc5[C@H]6N)nc4n3)cccc21 [Example 135, (S)-1-(4-((2-(1-amino-1,3-dihydrospiro[indene-2,4′-piperidin]-1′-yl)-1H-imidazo[4,5-b]pyrazin-5-yl)thio)-3,3-difluoroindolin-1-yl)ethan-1-one]
[1]
  IC50: < 500 nM
[2]; [3]
  IC50: < 1000 nM

## Cn1cc2c(Sc3cnc4[nH]c(N5CCC6(CC5)Cc5ccccc5[C@H]6N)nc4n3)ccnc2n1 [Example 255, (S)-1′-(5-((2-methyl-2H-pyrazolo[3,4-b]pyridin-4-yl)thio)-1H-imidazo[4,5-b]pyrazin-2-yl)-1,3-dihydrospiro[indene-2,4′-piperidin]-1-amine]
[1]
  IC50: < 500 nM
[2]; [3]
  IC50: < 1000 nM
